Inhibition data for one compound are collected here from article PMC8815074, “Development of ^11C-Labeled ASEM Analogues for the Detection of Neuronal Nicotinic Acetylcholine Receptors (α7-nAChR)” (ACS Chemical Neuroscience, 2022).

Molecules are shown by their SMILES.

The target of this assay is T1, α7-nAChR (Rattus norvegicus, UniProt Q05941).
T1 construct: gene Chrna7; native receptor in rat brain sections
As to the kind of experiment: radioligand autoradiography ([…] and 3H, […]) with blocking by ASEM and unlabeled KIn-83. Conditions: read-out: % of total binding displaced at 10 uM.

T1 sequence (Q05941 23-502): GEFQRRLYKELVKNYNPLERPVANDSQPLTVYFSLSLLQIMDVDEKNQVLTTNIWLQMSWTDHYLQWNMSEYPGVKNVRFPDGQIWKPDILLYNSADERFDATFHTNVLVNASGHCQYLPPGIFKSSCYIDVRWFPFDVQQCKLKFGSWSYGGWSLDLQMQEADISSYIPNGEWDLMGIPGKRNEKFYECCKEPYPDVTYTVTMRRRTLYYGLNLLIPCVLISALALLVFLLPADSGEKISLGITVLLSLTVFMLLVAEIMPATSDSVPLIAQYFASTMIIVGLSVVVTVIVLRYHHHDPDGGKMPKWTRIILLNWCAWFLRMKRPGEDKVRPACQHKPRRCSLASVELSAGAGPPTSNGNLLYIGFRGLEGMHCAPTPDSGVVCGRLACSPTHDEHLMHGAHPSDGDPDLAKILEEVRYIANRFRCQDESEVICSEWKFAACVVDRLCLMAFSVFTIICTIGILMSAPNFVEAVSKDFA

As to `COc1cccc2c1S(=O)(=O)c1cc(N3CCN4CCC3CC4)ccc1-2` [KIn-83], the inhibition at 10 µM was found to be 80%.
